Data reported in ChEMBL document CHEMBL4507287, “Data for DCP probe MRL-650” (2021).

Tests used:
Nociceptin receptor = Nociceptin receptor (Homo sapiens, UniProt P41146); assay: GPCRScan assay: inhibition of NOP; parameters: radioligand conc. used [nm] 0.5 – 2.0, parental cells HEKT
[1] = molecular target: Activin receptor type-1 (Homo sapiens) (UniProt Q04771); details: Compound concentration 1000.0 nM
[2] = molecular target: Atypical kinase COQ8A, mitochondrial (Homo sapiens) (UniProt Q8NI60); details: Compound concentration 1000.0 nM
[3] = molecular target: RAC-alpha serine/threonine-protein kinase (Homo sapiens) (UniProt P31749); details: Compound concentration 1000.0 nM
[4] = molecular target: 5'-AMP-activated protein kinase catalytic subunit alpha-1 (Homo sapiens) (UniProt Q13131); details: Compound concentration 1000.0 nM
[5] = molecular target: Protein-tyrosine kinase 6 (Homo sapiens) (UniProt Q13882); details: Compound concentration 1000.0 nM
[6] = molecular target: Peripheral plasma membrane protein CASK (Homo sapiens) (UniProt O14936); details: Compound concentration 1000.0 nM
[7] = molecular target: Cyclin-dependent kinase 4 (Homo sapiens) (UniProt P11802); details: Compound concentration 1000.0 nM
[8] = molecular target: Cyclin-dependent kinase-like 2 (Homo sapiens) (UniProt Q92772); details: Compound concentration 1000.0 nM
[9] = molecular target: Serine/threonine-protein kinase Chk2 (Homo sapiens) (UniProt O96017); details: Compound concentration 1000.0 nM
[10] = molecular target: Casein kinase I isoform alpha-like (Homo sapiens) (UniProt Q8N752); details: Compound concentration 1000.0 nM
[11] = molecular target: Casein kinase I isoform gamma-2 (Homo sapiens) (UniProt P78368); details: Compound concentration 1000.0 nM
[12] = molecular target: Death-associated protein kinase 3 (Homo sapiens) (UniProt O43293); details: Compound concentration 1000.0 nM
[13] = molecular target: Discoidin domain-containing receptor 2 (Homo sapiens) (UniProt Q16832); details: Compound concentration 1000.0 nM
[14] = tested on: Epidermal growth factor receptor (Homo sapiens), P00533 [UNDEFINED MUTATION]; details: Compound concentration 1000.0 nM
[15] = molecular target: Ephrin type-B receptor 4 (Homo sapiens) (UniProt P54760); details: Compound concentration 1000.0 nM
[16] = molecular target: Tyrosine-protein kinase Fes/Fps (Homo sapiens) (UniProt P07332); details: Compound concentration 1000.0 nM
[17] = molecular target: Fibroblast growth factor receptor 1 (Homo sapiens) (UniProt P11362); details: Compound concentration 1000.0 nM
[18] = molecular target: Rhodopsin kinase GRK1 (Homo sapiens) (UniProt Q15835); details: Compound concentration 1000.0 nM
[19] = molecular target: Homeodomain-interacting protein kinase 3 (Homo sapiens) (UniProt Q9H422); details: Compound concentration 1000.0 nM
[20] = molecular target: Homeodomain-interacting protein kinase 4 (Homo sapiens) (UniProt Q8NE63); details: Compound concentration 1000.0 nM
[21] = molecular target: Mast/stem cell growth factor receptor Kit (Homo sapiens) (UniProt P10721); details: Compound concentration 1000.0 nM
[22] = molecular target: Tyrosine-protein kinase Lyn (Homo sapiens) (UniProt P07948); details: Compound concentration 1000.0 nM
[23] = molecular target: Misshapen-like kinase 1 (Homo sapiens) (UniProt Q8N4C8); details: Compound concentration 1000.0 nM
[24] = molecular target: MAP kinase-interacting serine/threonine-protein kinase 2 (Homo sapiens) (UniProt Q9HBH9); details: Compound concentration 1000.0 nM
[25] = molecular target: Serine/threonine-protein kinase PAK 6 (Homo sapiens) (UniProt Q9NQU5); details: Compound concentration 1000.0 nM
[26] = tested on: Phosphatidylinositol 4,5-bisphosphate 3-kinase catalytic subunit alpha isoform (Homo sapiens), P42336 [I800L]; details: Compound concentration 1000.0 nM
[27] = tested on: Phosphatidylinositol 4,5-bisphosphate 3-kinase catalytic subunit alpha isoform (Homo sapiens), P42336 [M1043I]; details: Compound concentration 1000.0 nM
[28] = molecular target: Serine/threonine-protein kinase RIO3 (Homo sapiens) (UniProt O14730); details: Compound concentration 1000.0 nM
[29] = molecular target: Ribosomal protein S6 kinase alpha-4 (Homo sapiens) (UniProt O75676); details: Compound concentration 1000.0 nM
[30] = molecular target: Ribosomal protein S6 kinase alpha-2 (Homo sapiens) (UniProt Q15349); details: Compound concentration 1000.0 nM
[31] = molecular target: NUAK family SNF1-like kinase 2 (Homo sapiens) (UniProt Q9H093); details: Compound concentration 1000.0 nM
[32] = molecular target: Serine/threonine-protein kinase TAO3 (Homo sapiens) (UniProt Q9H2K8); details: Compound concentration 1000.0 nM
[33] = molecular target: Tyrosine-protein kinase Tec (Homo sapiens) (UniProt P42680); details: Compound concentration 1000.0 nM
[34] = molecular target: Angiopoietin-1 receptor (Homo sapiens) (UniProt Q02763); details: Compound concentration 1000.0 nM
[35] = molecular target: Non-receptor tyrosine-protein kinase TNK1 (Homo sapiens) (UniProt Q13470); details: Compound concentration 1000.0 nM
[36] = molecular target: Serine/threonine-protein kinase ULK2 (Homo sapiens) (UniProt Q8IYT8); details: Compound concentration 1000.0 nM
[37] = molecular target: Serine/threonine-protein kinase 32C (Homo sapiens) (UniProt Q86UX6); details: Compound concentration 1000.0 nM
[38] = molecular target: 5-hydroxytryptamine receptor 1B (Homo sapiens) (UniProt P28222); details: Compound concentration 10.0 uM
[39] = molecular target: Sodium-dependent noradrenaline transporter (Homo sapiens) (UniProt P23975); details: Compound concentration 10.0 uM
[40] = molecular target: Mu-type opioid receptor (Homo sapiens) (UniProt P35372); details: Compound concentration 10.0 uM
[41] = molecular target: Histamine H2 receptor (Homo sapiens) (UniProt P25021); details: Compound concentration 10.0 uM
[42] = molecular target: Muscarinic acetylcholine receptor M2 (Homo sapiens) (UniProt P08172); details: Compound concentration 10.0 uM
[43] = molecular target: Muscarinic acetylcholine receptor M5 (Homo sapiens) (UniProt P08912); details: Compound concentration 10.0 uM
[44] = molecular target: Sigma non-opioid intracellular receptor 1 (Homo sapiens, UniProt Q99720); details: Compound concentration 10.0 uM
Sigma non-opioid intracellular receptor 1, sequence (Q99720 whole entry): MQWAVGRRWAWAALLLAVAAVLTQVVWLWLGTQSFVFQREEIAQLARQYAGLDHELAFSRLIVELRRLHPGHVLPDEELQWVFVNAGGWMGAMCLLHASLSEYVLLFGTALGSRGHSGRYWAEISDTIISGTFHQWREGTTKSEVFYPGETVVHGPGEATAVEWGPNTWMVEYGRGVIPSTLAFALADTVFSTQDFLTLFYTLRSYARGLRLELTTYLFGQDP

Nociceptin receptor, sequence (P41146 whole entry): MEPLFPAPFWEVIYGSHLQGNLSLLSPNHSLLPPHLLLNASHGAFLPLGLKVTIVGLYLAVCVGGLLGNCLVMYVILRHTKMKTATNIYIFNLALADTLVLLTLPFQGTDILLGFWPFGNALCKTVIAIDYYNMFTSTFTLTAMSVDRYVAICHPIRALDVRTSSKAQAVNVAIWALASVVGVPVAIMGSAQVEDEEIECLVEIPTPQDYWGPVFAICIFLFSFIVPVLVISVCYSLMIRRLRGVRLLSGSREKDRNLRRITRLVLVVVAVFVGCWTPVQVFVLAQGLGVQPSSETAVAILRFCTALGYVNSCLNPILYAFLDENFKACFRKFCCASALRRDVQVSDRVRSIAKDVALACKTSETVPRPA
Muscarinic acetylcholine receptor M5 (Homo sapiens), sequence (P08912 whole entry): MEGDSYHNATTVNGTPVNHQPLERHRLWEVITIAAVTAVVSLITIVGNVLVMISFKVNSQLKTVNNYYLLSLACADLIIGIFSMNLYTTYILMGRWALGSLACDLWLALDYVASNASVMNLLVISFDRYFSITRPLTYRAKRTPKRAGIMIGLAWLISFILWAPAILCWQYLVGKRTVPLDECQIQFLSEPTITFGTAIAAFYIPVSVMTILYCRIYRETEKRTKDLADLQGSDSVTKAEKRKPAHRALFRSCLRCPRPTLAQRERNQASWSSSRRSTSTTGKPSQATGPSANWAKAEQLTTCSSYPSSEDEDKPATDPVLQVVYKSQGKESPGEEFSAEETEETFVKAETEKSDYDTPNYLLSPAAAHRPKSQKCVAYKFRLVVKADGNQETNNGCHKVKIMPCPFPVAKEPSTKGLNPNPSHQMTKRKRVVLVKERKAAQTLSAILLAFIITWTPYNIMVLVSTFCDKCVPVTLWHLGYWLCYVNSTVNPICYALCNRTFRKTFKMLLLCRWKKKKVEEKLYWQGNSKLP
MAP kinase-interacting serine/threonine-protein kinase 2 (Homo sapiens), sequence (Q9HBH9 whole entry, looked up): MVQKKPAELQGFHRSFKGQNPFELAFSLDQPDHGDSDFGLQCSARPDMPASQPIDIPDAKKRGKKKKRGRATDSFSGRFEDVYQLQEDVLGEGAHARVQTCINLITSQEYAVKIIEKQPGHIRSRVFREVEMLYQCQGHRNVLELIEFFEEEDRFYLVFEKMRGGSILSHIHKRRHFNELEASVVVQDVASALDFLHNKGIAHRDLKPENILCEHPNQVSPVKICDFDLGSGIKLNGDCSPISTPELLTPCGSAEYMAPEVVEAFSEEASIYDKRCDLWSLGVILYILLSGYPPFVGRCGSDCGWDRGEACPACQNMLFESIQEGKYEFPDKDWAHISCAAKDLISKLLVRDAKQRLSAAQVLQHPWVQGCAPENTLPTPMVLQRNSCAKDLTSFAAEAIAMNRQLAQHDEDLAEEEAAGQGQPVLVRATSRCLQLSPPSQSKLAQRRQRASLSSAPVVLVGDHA
Fibroblast growth factor receptor 1 (Homo sapiens), sequence (P11362 22-822 limits assumed): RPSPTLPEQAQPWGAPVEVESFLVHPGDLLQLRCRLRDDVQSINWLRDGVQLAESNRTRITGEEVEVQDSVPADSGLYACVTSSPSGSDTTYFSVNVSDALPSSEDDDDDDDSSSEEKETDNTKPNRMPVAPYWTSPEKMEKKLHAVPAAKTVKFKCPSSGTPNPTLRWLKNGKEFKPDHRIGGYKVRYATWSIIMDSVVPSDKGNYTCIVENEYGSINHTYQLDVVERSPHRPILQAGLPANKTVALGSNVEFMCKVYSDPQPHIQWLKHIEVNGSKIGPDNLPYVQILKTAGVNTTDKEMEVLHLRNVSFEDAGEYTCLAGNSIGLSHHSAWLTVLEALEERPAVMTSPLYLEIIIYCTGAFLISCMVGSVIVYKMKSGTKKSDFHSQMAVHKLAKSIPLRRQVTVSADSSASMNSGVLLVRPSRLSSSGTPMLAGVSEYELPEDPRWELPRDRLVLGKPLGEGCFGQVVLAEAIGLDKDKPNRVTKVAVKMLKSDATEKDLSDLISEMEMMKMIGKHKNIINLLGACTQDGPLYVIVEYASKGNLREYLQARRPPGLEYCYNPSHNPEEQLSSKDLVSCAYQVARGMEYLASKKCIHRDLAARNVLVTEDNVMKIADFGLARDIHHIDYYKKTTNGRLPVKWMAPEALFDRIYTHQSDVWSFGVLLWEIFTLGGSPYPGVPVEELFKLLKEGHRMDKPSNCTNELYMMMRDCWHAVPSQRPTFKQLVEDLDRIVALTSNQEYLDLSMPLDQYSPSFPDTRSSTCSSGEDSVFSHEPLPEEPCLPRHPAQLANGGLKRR
5'-AMP-activated protein kinase catalytic subunit alpha-1 (Homo sapiens), sequence (Q13131 whole entry, looked up): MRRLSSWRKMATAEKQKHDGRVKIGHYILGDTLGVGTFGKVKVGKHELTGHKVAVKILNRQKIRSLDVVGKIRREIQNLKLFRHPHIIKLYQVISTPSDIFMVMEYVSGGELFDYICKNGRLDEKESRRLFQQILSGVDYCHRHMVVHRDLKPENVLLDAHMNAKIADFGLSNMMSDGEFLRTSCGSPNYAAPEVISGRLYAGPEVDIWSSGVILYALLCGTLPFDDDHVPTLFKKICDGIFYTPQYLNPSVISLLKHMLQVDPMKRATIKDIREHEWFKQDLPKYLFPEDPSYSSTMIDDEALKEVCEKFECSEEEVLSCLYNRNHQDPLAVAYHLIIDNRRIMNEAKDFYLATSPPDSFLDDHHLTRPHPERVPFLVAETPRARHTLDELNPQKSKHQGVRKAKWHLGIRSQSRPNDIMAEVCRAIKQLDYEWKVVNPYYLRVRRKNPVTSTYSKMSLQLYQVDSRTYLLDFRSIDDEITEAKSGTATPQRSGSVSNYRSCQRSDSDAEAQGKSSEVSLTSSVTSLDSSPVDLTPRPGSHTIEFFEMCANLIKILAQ
Ribosomal protein S6 kinase alpha-2 (Homo sapiens), sequence (Q15349 whole entry): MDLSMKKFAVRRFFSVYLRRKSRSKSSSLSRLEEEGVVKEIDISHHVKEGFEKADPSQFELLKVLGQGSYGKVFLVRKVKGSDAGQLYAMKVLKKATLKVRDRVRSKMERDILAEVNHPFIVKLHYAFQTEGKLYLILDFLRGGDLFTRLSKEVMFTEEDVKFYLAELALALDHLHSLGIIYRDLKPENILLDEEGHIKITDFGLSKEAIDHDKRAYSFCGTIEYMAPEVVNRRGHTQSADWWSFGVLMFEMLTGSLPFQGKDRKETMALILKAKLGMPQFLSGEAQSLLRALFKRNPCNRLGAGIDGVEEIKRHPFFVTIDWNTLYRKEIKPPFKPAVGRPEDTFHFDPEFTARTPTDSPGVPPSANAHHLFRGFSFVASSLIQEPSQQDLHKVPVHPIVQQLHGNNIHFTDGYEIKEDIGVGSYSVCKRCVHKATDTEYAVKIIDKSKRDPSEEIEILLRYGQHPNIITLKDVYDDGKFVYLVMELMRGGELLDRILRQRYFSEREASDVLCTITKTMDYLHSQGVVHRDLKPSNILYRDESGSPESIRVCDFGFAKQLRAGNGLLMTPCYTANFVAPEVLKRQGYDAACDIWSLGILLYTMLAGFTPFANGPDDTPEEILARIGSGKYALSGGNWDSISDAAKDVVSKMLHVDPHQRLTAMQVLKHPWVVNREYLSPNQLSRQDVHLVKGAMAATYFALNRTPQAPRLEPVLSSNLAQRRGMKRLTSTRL
5-hydroxytryptamine receptor 1B (Homo sapiens), sequence (P28222 whole entry): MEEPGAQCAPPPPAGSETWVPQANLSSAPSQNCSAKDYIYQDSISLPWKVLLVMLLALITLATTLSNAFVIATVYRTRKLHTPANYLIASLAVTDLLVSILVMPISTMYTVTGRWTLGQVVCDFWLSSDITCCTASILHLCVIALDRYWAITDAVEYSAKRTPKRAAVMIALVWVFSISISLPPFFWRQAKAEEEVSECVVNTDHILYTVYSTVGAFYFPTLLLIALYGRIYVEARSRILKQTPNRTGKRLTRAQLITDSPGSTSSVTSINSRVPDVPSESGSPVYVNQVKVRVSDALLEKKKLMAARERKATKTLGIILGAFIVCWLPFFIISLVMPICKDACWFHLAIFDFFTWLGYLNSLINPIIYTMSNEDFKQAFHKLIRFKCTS
Tyrosine-protein kinase Lyn (Homo sapiens), sequence (P07948 2-512 limits assumed): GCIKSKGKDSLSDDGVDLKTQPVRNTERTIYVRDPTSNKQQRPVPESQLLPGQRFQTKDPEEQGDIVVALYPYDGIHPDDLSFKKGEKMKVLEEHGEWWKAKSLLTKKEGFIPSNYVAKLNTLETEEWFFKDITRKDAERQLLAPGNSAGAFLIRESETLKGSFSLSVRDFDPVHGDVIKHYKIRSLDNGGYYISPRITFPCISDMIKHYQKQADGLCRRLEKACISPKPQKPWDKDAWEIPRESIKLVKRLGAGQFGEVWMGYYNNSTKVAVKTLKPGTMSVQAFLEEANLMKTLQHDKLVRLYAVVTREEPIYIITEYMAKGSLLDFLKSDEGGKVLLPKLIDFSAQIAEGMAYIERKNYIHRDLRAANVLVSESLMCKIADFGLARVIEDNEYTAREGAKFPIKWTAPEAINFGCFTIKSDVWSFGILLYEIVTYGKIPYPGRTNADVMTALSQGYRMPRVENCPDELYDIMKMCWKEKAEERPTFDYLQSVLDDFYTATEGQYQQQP
Mu-type opioid receptor (Homo sapiens), sequence (P35372 whole entry): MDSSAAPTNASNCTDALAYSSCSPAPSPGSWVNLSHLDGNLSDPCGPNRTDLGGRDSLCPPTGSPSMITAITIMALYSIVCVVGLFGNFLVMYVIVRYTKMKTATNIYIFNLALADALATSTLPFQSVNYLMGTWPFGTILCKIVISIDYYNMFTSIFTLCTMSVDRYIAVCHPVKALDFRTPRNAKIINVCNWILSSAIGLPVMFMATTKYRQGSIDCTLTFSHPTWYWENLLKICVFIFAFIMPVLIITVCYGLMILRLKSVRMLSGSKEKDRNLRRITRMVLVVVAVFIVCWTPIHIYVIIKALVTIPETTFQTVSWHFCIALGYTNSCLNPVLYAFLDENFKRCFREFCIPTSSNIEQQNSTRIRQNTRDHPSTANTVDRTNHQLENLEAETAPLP

CC(=O)c1c(NS(C)(=O)=O)c2cc(-c3ccc(Cl)cc3)c(-c3ccc(Cl)cc3Cl)nc2n(C)c1=O [MRL-CB1-NC]
inhibition (Nociceptin receptor; Compound concentration 10.0 uM): -2.4% | residual activity [1]: 93% | residual activity [2]: 100% | residual activity [3]: 89% | residual activity [4]: 100% | residual activity [5]: 100% | residual activity [6]: 92% | residual activity [7]: 63% | residual activity [8]: 99% | residual activity [9]: 100% | residual activity [10]: 100% | residual activity [11]: 100% | residual activity [12]: 100% | residual activity [13]: 96% | residual activity [14]: 100% | residual activity [15]: 92% | residual activity [16]: 87% | residual activity [17]: 97% | residual activity [18]: 84% | residual activity [19]: 88% | residual activity [20]: 93% | residual activity [21]: 100% | residual activity [22]: 100% | residual activity [23]: 100% | residual activity [24]: 75% | residual activity [25]: 100% | residual activity [26]: 64% | residual activity [27]: 100% | residual activity [28]: 96% | residual activity [29]: 87% | residual activity [30]: 100% | residual activity [31]: 89% | residual activity [32]: 72% | residual activity [33]: 100% | residual activity [34]: 90% | residual activity [35]: 100% | residual activity [36]: 97% | residual activity [37]: 100% | inhibition [38]: -2.36% | inhibition [39]: 20.2% | inhibition [40]: 34.4% | inhibition [41]: 13.8% | inhibition [42]: -4.45% | inhibition [43]: -4.92% | inhibition [44]: -7.46%

CC(=O)Nc1c(C(C)=O)c(=O)n(C)c2nc(-c3ccc(Cl)cc3Cl)c(-c3ccc(Cl)cc3)cc12 [NAPHTHYRIDINONE]
Ki (Nociceptin receptor): 10 µM | pKi (Nociceptin receptor): 5 | residual activity [1]: 100% | residual activity [2]: 100% | residual activity [3]: 100% | residual activity [4]: 100% | residual activity [5]: 100% | residual activity [6]: 83% | residual activity [7]: 87% | residual activity [8]: 100% | residual activity [9]: 100% | residual activity [10]: 100% | residual activity [11]: 100% | residual activity [12]: 100% | residual activity [13]: 100% | residual activity [14]: 100% | residual activity [15]: 100% | residual activity [16]: 100% | residual activity [17]: 100% | residual activity [18]: 78% | residual activity [19]: 97% | residual activity [20]: 89% | residual activity [21]: 100% | residual activity [22]: 100% | residual activity [23]: 100% | residual activity [24]: 100% | residual activity [25]: 100% | residual activity [26]: 58% | residual activity [27]: 100% | residual activity [28]: 100% | residual activity [29]: 100% | residual activity [30]: 100% | residual activity [31]: 100% | residual activity [32]: 63% | residual activity [33]: 100% | residual activity [34]: 91% | residual activity [35]: 100% | residual activity [36]: 100% | residual activity [37]: 100% | inhibition [38]: 43.6% | inhibition [39]: 15.5% | inhibition [40]: 8.16% | inhibition [41]: 6.71% | inhibition [42]: -7.96% | inhibition [43]: -4.54% | inhibition [44]: 50%
